Assay results reported in patent US20200277355A1 (GUILIN EIGHT PLUS ONE PHARMACEUTICAL CO., LTD., priority 2017, published 2020).
Where two headings read alike, the source gives them in different places. No end group written: not given here.

How the values were obtained:
[1] = Plasma half-life in SD rats (ELISA); assay type: in vivo
Protocol: The assay was performed according to the manufacturer's instructions using an ELISA kit purchased from Genzyme. Serum samples were collected from the […] with heparinized 50 μL capillaries, and blood samples were collected at 1 min, 2 min, 3 min, 5 min, 10 min, 15 min, 20 min, 30 min, 45 min, 1 h, 2 h, 4 h, 6 h, 8 h after treatment. After standing for 2 h, the sample was centrifuged, and the obtained supernatant was stored at −20° C. for testing.

TNFR1-TNF-α binding = target: T1, TNFR1-TNF-α binding (Homo sapiens, UniProt P19438); experiment: MST competitive inhibition of TNFR1-TNF-α binding
T1 sequence (P19438 30-211 limits assumed): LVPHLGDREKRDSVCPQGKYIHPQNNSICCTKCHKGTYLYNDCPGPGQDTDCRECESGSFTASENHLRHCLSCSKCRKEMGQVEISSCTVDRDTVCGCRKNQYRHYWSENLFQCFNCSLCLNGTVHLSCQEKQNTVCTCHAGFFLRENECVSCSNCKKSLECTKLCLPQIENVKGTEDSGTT
Description: On-machine detection, software fitting to find the KD value. The changes of TNF-α saturation concentration, response amplitude and KD value before and after Hydrostatin-SN10 were compared.

[2] = Isoelectric point of Hydrostatin-SN10; assay type: physicochemical
[3] = tested on: OXZ-induced acute colitis mouse; experiment: Oxazolone-induced acute colitis mouse model; assay type: in vivo, Balb/c mice; conditions: for body weight change: 400 ug/kg/d i.p. 3 days, FIG. 13; for colon length: 3rd day after enema, FIG. 15; for MPO activity in colon tissue: FIG. 17; for serum IFN-γ level / serum IL-1β level / serum IL-6 level / serum IL-10 (anti-inflammatory factor) / serum TNF-α level: FIG. 18; for pathological changes in colon tissue, HE staining: FIG. 19; for expression of TNF-α in colon tissue sections: FIG. 20
Protocol: Establishment of an oxazolone-induced mouse colitis animal model: Male Balb/c mice, 6-8 weeks old, were randomly divided into 8 groups, each containing 10 mice. On the first day, the back skin of the mouse was shaved (1.5 cm×1.5 cm), and the normal group was coated with 0.15 mL of acetone/olive oil solution (acetone/olive oil volume ratio of 4:1). The model group and the SN10 group were negatively controlled. The drug and the positive control group were skin-coated with 0.15 mL of 3% (w/v) oxazolone (dissolved in acetone/olive oil solution) for skin pre-sensitization. On the 8th day, the mice were anesthetized by intraperitoneal injection of 4% chloral hydrate. The 3.51 catheter was slowly and gently inserted into the colon of the mouse about 4 cm from the anus. The normal group was injected with 0.1 mL of 50% ethanol, and the other groups were injected with […]. 1% (w/v) oxazolone (dissolved in 50% ethanol), slowly pull out the catheter, keep the mouse vertical, head down position for 60 s, so that the drug solution is fully left in the intestinal lumen. After enema, the normal group and the model group were given intraperitoneal injection of 0.1 mL of normal saline. […] The injection dose was 400 ug/kg/d, and the positive drug group was given 0.1 mL sulfasalazine and intravesical injection of infliximab (dissolved in normal saline) at doses of 400 mg/kg/d and 5 mg/respectively. Each kg/d was administered continuously for 3 days.
The body weight changes, stool characteristics and blood in the stool were observed and recorded daily after enema.
On the 3rd day after enema, the mice were sacrificed by cervical dislocation. The colon and spleen were removed immediately. The length of the colon was measured.
Part of the diseased colon tissue was excised and weighed. MPO) activity in mouse colon tissue was detected using a myeloperoxidase (MPO) assay kit (Nanjing Institute of Bioengineering). MPO is a functional marker and activation marker for neutrophils and is involved in many processes that regulate inflammatory responses. Excessive MPO activity catalyzes the reaction to produce excess oxidants, causing local oxidative stress and oxidative tissue damage.
The colon of the mouse were washed with saline, fixed in 10% formalin. Tissue sections were prepared and stained with HE.

TNF-α [4] = target: T2, TNF-α (Homo sapiens, UniProt P01375); experiment: BIAcore (SPR) binding of Hydrostatin-SN10 to TNF-α
[5] = tested on: DSS-induced acute colitis mouse; experiment: Dextran sulfate sodium-induced acute colitis mouse model; assay type: in vivo, Balb/c mice; conditions: for body weight change: DSS 2.5% 7 days, 400 μg/kg/d intraperitoneal, FIG. 5; for myeloperoxidase (MPO) activity in colon tissue: FIG. 9; for serum IFN-γ content / serum IL-6 content / serum IL-10 (anti-inflammatory factor) / serum IL-β content / serum TNF-α content: FIG. 10; for colonic lesions, HE staining: FIG. 11; for TNF-α expressed in colon tissue sections: FIG. 12; for colon length: day 7, FIG. 7
Protocol: The specific implementation steps are as follows: Balb/c mice 6-8 weeks old were randomly divided into 8 groups, each group containing 10 mice.
According to Table 2, the disease activity index (DAI) score was obtained. […] Seven days after the model was established, the mouse were sacrificed by cervical dislocation, and the entire colon and spleen were removed. […] The spleen weight was measured and the spleen index was calculated.

TNFR2 = target: T3, TNFR2 (Homo sapiens, UniProt P20333); experiment: MST binding of Hydrostatin-SN10 to TNFR2
T3 sequence (P20333 23-461): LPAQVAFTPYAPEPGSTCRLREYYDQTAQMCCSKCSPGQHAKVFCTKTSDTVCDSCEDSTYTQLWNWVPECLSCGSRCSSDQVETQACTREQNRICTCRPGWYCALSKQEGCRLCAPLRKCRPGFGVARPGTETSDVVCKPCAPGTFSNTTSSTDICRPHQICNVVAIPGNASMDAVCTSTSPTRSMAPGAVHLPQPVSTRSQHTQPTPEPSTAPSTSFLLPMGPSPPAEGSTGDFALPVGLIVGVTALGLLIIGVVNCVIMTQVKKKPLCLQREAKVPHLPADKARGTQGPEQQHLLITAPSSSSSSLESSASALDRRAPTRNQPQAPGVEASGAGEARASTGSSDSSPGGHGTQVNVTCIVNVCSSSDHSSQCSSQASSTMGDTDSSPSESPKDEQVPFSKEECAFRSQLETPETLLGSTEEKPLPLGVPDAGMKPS

TNFR1 [6] = target: T4, TNFR1 (Homo sapiens, UniProt P19438); experiment: biochemical
T4 sequence (P19438 30-455): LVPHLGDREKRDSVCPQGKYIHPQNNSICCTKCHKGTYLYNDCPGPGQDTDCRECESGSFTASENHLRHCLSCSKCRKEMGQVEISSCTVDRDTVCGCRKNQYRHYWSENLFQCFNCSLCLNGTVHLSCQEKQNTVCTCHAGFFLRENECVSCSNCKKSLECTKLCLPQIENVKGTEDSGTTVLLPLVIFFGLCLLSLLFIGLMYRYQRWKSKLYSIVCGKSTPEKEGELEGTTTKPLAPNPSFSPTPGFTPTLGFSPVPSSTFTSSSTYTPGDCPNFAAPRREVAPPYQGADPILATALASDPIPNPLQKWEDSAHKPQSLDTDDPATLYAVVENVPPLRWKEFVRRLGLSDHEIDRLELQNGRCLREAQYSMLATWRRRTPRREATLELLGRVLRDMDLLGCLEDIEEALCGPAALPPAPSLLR

TNFR1 [7] = target: T4, TNFR1; experiment: biochemical; remark: listed apart in the source
TNF-α-TNFR1 binding = target: T5, TNF-α-TNFR1 binding (Homo sapiens, UniProt P19438); experiment: BIAcore (SPR) competitive inhibition of TNF-α-TNFR1 binding
T5 sequence (P19438 30-211 limits assumed): T1 sequence (P19438 30-211 limits assumed)

TNF-α [8] = target: T2, TNF-α; experiment: MST binding of Hydrostatin-SN10 to TNF-α; conditions: fluorescently labeled TNF-α

Substance | overall treatment effect in oxazolone-induced colitis ([3]; 400 ug/kg/d i.p.) | body weight change [3] | colon length ([3]; 400 ug/kg/d i.p.) | MPO activity in colon tissue ([3]; 400 ug/kg/d i.p.) | serum IFN-γ level ([3]; 400 ug/kg/d i.p.) | serum IL-1β level ([3]; 400 ug/kg/d i.p.) | serum IL-6 level ([3]; 400 ug/kg/d i.p.) | serum IL-10 (anti-inflammatory factor) ([3]; 400 ug/kg/d i.p.) | serum TNF-α level ([3]; 400 ug/kg/d i.p.) | pathological changes in colon tissue, HE staining ([3]; 400 ug/kg/d i.p.) | expression of TNF-α in colon tissue sections ([3]; 400 ug/kg/d i.p.) | body weight change [5] | overall treatment effect in DSS-induced colitis ([5]; DSS, 400 μg/kg/d i.p.) | myeloperoxidase (MPO) activity in colon tissue ([5]; DSS, 400 μg/kg/d i.p.) | serum IFN-γ content ([5]; DSS, 400 μg/kg/d i.p.) | serum IL-6 content ([5]; DSS, 400 μg/kg/d i.p.) | serum IL-10 (anti-inflammatory factor) ([5]; DSS, 400 μg/kg/d i.p.) | serum IL-β content ([5]; DSS, 400 μg/kg/d i.p.) | serum TNF-α content ([5]; DSS, 400 μg/kg/d i.p.) | colonic lesions, HE staining ([5]; DSS, 400 μg/kg/d i.p.) | further results
H-DEQHLETELH [Hydrostatin-SN10] | effective in the treatment of oxazolone-induced mouse colitis animal model | significantly reduced the weight loss | significantly improved colon length | effective in inhibiting the increase in MPO activity | significantly reduced | significantly reduced | significantly reduced | significantly increased | significantly reduced | significantly attenuated pathological changes in mouse colon tissue | significantly reduced | effective in inhibiting the weight loss | effective in treating DSS-induced colitis animal models | significantly reduce MPO activity | significantly decreased | significantly decreased | significantly increased | significantly decreased | significantly decreased | effectively inhibit colonic lesions caused by DSS | half-life ([1]; rat, plasma, ELISA): 2.18 h; competitive inhibition of the interaction of TNFR1 and TNF-α (TNFR1-TNF-α binding): competitively inhibit; isoelectric point [2]: 4.39; disease activity index (DAI) score ([3]; 400 ug/kg/d i.p., FIG. 14): effectively alleviate the symptoms of diarrhea and blood in the stool; spleen index ([3]; 400 ug/kg/d i.p., FIG. 16): significantly down-regulate the mouse spleen index; binding to TNF-α (TNF-α [4]): does not bind; binding to TNF-α (TNF-α [4]; listed as SN10): no binding; disease activity index (DAI) score ([5]; DSS, 400 μg/kg/d i.p., FIG. 6): effectively alleviate the symptoms of diarrhea and blood in the stool; spleen index ([5]; DSS, 400 μg/kg/d i.p., FIG. 8): effectively inhibit spleen changes caused by colitis; TNF-α expressed in colon tissue sections ([5]; DSS, 400 μg/kg/d i.p.): alleviate the degree of inflammation in the colon tissue; colon length ([5]; DSS, 400 μg/kg/d i.p.): significantly improved the colon length; binding to TNFR2 (TNFR2; fluorescently labeled TNFR2): not binding; binding to TNFR2 (TNFR2; fluorescently labeled TNFR2, listed as SN10): no binding; Kd (TNFR1 [6]): 2800 nM; Kd (TNFR1 [7]): ~2800 nM; competitive inhibition of the interaction of TNFR1 with TNF-α (TNF-α-TNFR1 binding): competitively inhibits; binding to TNF-α (TNF-α [8]): not binding; binding to TNF-α (TNF-α [8]; listed as SN10): no binding
PEG-SN10: Hydrostatin-SN10 modified with mPEG2000; carboxyl group of mPEG2000 covalently linked to free amino group of N-terminal aspartic acid (mPEG2000-DEQHLETELH) | effective in the treatment of oxazolone-induced mouse colitis animal model | significantly reduced the weight loss | significantly improved colon length | effective in inhibiting the increase in MPO activity | significantly reduced | significantly reduced | significantly reduced | significantly increased | significantly reduced | significantly attenuated pathological changes in mouse colon tissue | significantly reduced | effective in inhibiting the weight loss | effective in treating DSS-induced colitis animal models | significantly reduce MPO activity | significantly decreased | significantly decreased | significantly increased | significantly decreased | significantly decreased | effectively inhibit colonic lesions caused by DSS | plasma half-life compared with Hydrostatin-SN10 ([1]; after PEG modification): longer plasma half-life; TNF-α expressed in colon tissue sections ([5]; DSS, 400 μg/kg/d i.p.): alleviate the degree of inflammation in the colon tissue; colon length ([5]; DSS, 400 μg/kg/d i.p.): significantly improved the colon length
